Consider 11 compounds from patent US20220394981A1, “MICRONUTRIENT FORMULATIONS THAT CONTROL PLANT PATHOGENS” (priority 2021, published 2022).

The conditions of data set [1]: cited from earlier work.
For data set [2] the following is noted: cited from earlier work. The source holds these as a separate data set.
The conditions of data set [3]: cited from earlier work. The source holds these as a separate data set.
The conditions of data set [4]: cited from earlier work. The source holds these as a separate data set.
The conditions of data set [5]: cited from earlier work. The source holds these as a separate data set.
The conditions of data set [6]: cited from earlier work. The source holds these as a separate data set.
Another data set deals with CLas bacteria. In kind it is in vivo, Ruby red grapefruit trees. As for the experimental part: (§1) Experimental testing was performed at the Florida Research Center for Agricultural Sustainability (“FLARES”) in Vero Beach, Fla. where the inventor, Robert C. Adair, Jr. serves as the executive director after having founded FLARES in 2004. Testing was conducted on a uniform block of ninety-six (96) Ruby red grapefruit trees planted on Dec. 19, 2018 grafted with USDA “US-897” citrus rootstock. The red grapefruit trees were randomly assigned one of eight (8) treatments in twelve (12) replicated plots using a Randomized Complete Block (“RCB”) design to help ensure homogeneous conditions between test subject trees. The red grapefruit trees were treated using liquid formulations applied to the foliage, the soil proximal to the rhizosphere of the plant, or applied to both the foliage and the soil. The micronutrient chelate formulations were applied monthly, the citric acid treatments were applied weekly, and the iron nitrate treatment was applied every two weeks.
(§2) Before being treated, the red grapefruit trees were allowed time to establish root systems. The red grapefruit trees were exposed to infection of the CLas bacteria through native populations of the Asian citrus psyllid insect, which is the vector that spreads citrus greening disease among trees. The caliper, canopy diameter, and height for each grapefruit tree was measured prior to treatment and subsequently measured every six (6) to nine (9) months thereafter for the two-and-half (2.5) year duration of the experiment.
Individual leaf samples were collected from each of the ninety-six (96) trees and submitted to Southern Gardens Diagnostic Laboratory in Clewiston, Fla. for Polymerase Chain Reaction (“PCR”) analysis to determine the presence of CLas bacteria DNA. The results were expressed cycle threshold (“Ct”) values, and the logarithm of the copy number per milligram of tissue values were recorded and statistically evaluated. In a PCR analysis, a positive reaction is detected by the accumulation of a fluorescent signal. The Ct value is defined as the number of cycles required for a fluorescent signal to cross a threshold (i.e., exceeds background levels). Ct values are inversely proportional to the amount of a target nucleic acid in the sample being tested such that the lower the Ct level, the greater the amount of target nucleic acid in the sample. Ct values less than 29 are considered strong positive reactions indicative of an abundance of the target nucleic acid, and Ct values of 38-40 are indicative of minimal amounts of target nucleic acid.

The next data set relates to citrus greening disease. In kind it is in vivo, Ruby red grapefruit trees. Conditions: for Percentage of Trees Showing HLB Leaf Patterns: 270 days after the first treatment application. As to the method: as §1, §2
Tree condition was scored visually according to the disease indexing (“DI”) technique taught by Gottwald, Aubert, and Xue-Yuan. See Gottwald, T. R., B. Aubert, and Z. Xue-Yuan, Preliminary Analysis of Citrus Greening (Huanglungbin) Epidemics in the People's Republic of China and French Reunion Island, PHYTOPATHOLOGY Vol. No. 79: 687-693 (1989). Disease indexing techniques divide an image of a plant into multiple sections and/or subsections, such as hemispheres and quadrants, and assign each image section a score from zero to four. The score reflects the observable severity of disease impact on a plant with a score of four indicating a plant with no visible symptoms and a score of zero indicating the highest level of severity. The score for all sections of a plant image are added together to establish an overall DI score for a particular plant image, such that a healthy vigorous tree with no symptoms has a DI of 16.
Table 5 below presents data from the visual inspection of the red grapefruit trees for the symptoms of citrus greening disease measured at 270 days after the first treatment application or approximately half way through the experiment.

The test system of data set [7] is Ruby red grapefruit trees. As to the kind of experiment: Tree growth versus untreated control, field trial. The following applies: in vivo. As to the method: as §1
Before being treated, the red grapefruit trees were allowed time to establish root systems. […] The caliper, canopy diameter, and height for each grapefruit tree was measured prior to treatment and subsequently measured every six (6) to nine (9) months thereafter for the two-and-half (2.5) year duration of the experiment.
Canopy areas were determined from aerial images captured by a camera-equipped unmanned aerial vehicle (“UAV”). […]

[8] abbreviates: treatments applied as in Table 1 (foliar and/or soil).
Setting [9] is: treatments applied as in Table 1 (foliar and/or soil), listed as Fe(III)EDDHA.

Read-outs that look alike come from different tables or passages of the source.

Turning to `O=C(O)CC(O)(CC(=O)O)C(=O)O` [Citrate], in [1], the “LogK Mn2+ (stability constant)” value is reported as 3.7. For the same compound, the “LogK Fe2+ (stability constant)” value in data set [2] was 3.2. For the same compound, in data set [3], the “LogK Fe3+ (stability constant)” value is 11.85. For the same compound, the “LogK Zn2+ (stability constant)” value in [4] is given as 4.9. In addition, in [5], the “LogK Cu2+ (stability constant)” value is 5.9. In addition, the “LogK Ca2+ (stability constant)” value in data set [6] is listed as 4.7.
For `O=C(O)CN(CCN(CC(=O)O)CC(=O)O)CCN(CC(=O)O)CC(=O)O` [DTPA, diethylenetriaminepentaacetic acid], the “LogK Mn2+ (stability constant)” value in [1] is recorded as 15.1. In addition, in [2], the “LogK Fe2+ (stability constant)” value was 16.5. Further, the “LogK Fe3+ (stability constant)” value in [3] is 28.6. Besides, the “LogK Zn2+ (stability constant)” value in data set [4] is listed as 18.3. In [5], the “LogK Cu2+ (stability constant)” value was 21.1. Besides, in data set [6], the “LogK Ca2+ (stability constant)” value was 10.7.
Regarding `O=C(O)CN(CCN(CC(=O)O)CC(=O)O)CC(=O)O` [EDTA], the “LogK Mn2+ (stability constant)” value in data set [1] was 13.6. Moreover, the “LogK Fe3+ (stability constant)” value in data set [3] is recorded as 25.1. Besides, the “LogK Zn2+ (stability constant)” value in [4] is 16.5. The “LogK Cu2+ (stability constant)” value in data set [5] is listed as 18.8. Further, the “LogK Ca2+ (stability constant)” value in [6] was 10.7.
Turning to `O=C([O-])C(NCCNC(C(=O)[O-])c1ccccc1[O-])c1ccccc1[O-].[Fe+3].[Na+]` (centres unmarked) [Fe-EDDHA], in the data set on CLas bacteria (setting [8]), the “% of PCR Analysis Showing No CLas (Ct values = 40)” value (“% of PCR Analysis Showing No CLas” below) turned out to be 50%, the “Average Ct values based on qPCR analysis of citrus leaves” value (“Average Ct values based” for short) came out at 34.9 and the “Log Copy #/1 mg of Leaf Tissue” value came to 1.2. Moreover, in the data set on CLas bacteria (setting [9]), the “% of PCR Analysis Showing No CLas” value was “highest percentage”, the “Average Ct values based” value is listed as “highest Ct values” and the “Log Copy #/1 mg of Leaf Tissue” value is “the lowest”. For the same compound, the “Percentage of Trees Showing HLB Leaf Patterns” value (“Percentage” for short) with citrus greening disease (treatments as in Table 1) was found to be 10%. Further, the “Percentage” value with citrus greening disease (treatments as in Table 1, listed as Fe(III)EDDHA) is “lowest percentage of observable symptoms”. Moreover, the “symptoms of citrus greening disease, visually and analytically (CLas bacteria by PCR)” value in the data set on citrus greening disease (foliar and soil application) is listed as “reduced the symptoms of citrus greening disease”. The “citrus greening disease leaf symptoms, visual inspection” value in the data set on citrus greening disease (infected grapefruit trees) was “reduced”. For the same compound, the “tree growth versus an untreated control” value in data set [7] is reported as “increased tree growth”. Also, the “LogK Fe3+ (stability constant)” value in data set [3] is given as 35.40.
For the compound `O=C(O)[C@H](O)[C@@H](O)[C@H](O)[C@H](O)CO` [Gluconate], the “LogK Fe2+ (stability constant)” value in data set [2] is 1.0. Further, the “LogK Fe3+ (stability constant)” value in [3] is recorded as 10.0. In addition, the “LogK Zn2+ (stability constant)” value in data set [4] is given as 1.7?. Also, the “LogK Cu2+ (stability constant)” value in data set [5] was 36.0. In addition, in data set [6], the “LogK Ca2+ (stability constant)” value is reported as 1.2.
For `O=C(O)CN(CCN(CC(=O)O)Cc1ccccc1O)Cc1ccccc1O` [HBED, N,N′-bis(2-hydroxyphenyl)ethylenediamine-N,N′-diacetic acid], the “LogK Mn2+ (stability constant)” value in [1] was 16.5. Also, the “LogK Fe2+ (stability constant)” value in data set [2] is listed as 17.3. Also, the “LogK Fe3+ (stability constant)” value in data set [3] was 39.0. Further, the “LogK Zn2+ (stability constant)” value in [4] was 18.3. Further, the “LogK Cu2+ (stability constant)” value in [5] is on record as 21.4. For the same compound, the “LogK Ca2+ (stability constant)” value in data set [6] is 9.3.
With `O=C(O)CN(CCO)CCN(CC(=O)O)CC(=O)O` [HEDTA], the “LogK Mn2+ (stability constant)” value in data set [1] is 11.1. Also, in data set [2], the “LogK Fe2+ (stability constant)” value is 12.2. Further, the “LogK Fe3+ (stability constant)” value in data set [3] was 19.7. Also, the “LogK Zn2+ (stability constant)” value in data set [4] is 14.6. Further, the “LogK Cu2+ (stability constant)” value in data set [5] is listed as 17.4. Also, the “LogK Ca2+ (stability constant)” value in data set [6] was 8.1.
Turning to `O=C(O)CN(CCO)CCN(CC(=O)O)CC(=O)O` [HEEDTA], the “LogK Mn2+ (stability constant)” value in [1] is on record as 10.7. For the same compound, the “LogK Fe2+ (stability constant)” value in data set [2] is reported as 12.2. Further, the “LogK Fe3+ (stability constant)” value in [3] is on record as 19.6. In addition, in data set [4], the “LogK Zn2+ (stability constant)” value is 14.5. The “LogK Cu2+ (stability constant)” value in data set [5] is recorded as 17.4. In addition, in [6], the “LogK Ca2+ (stability constant)” value was 8.0.
`O=C(O)CC(NC(CC(=O)O)C(=O)O)C(=O)O` (centres unmarked) [IDHA, imidodisuccinic acid]: in [1], the “LogK Mn2+ (stability constant)” value is 7.7. In addition, the “LogK Fe3+ (stability constant)” value in data set [3] was 15.2. In addition, the “LogK Zn2+ (stability constant)” value in data set [4] is on record as 10.8. In addition, the “LogK Cu2+ (stability constant)” value in data set [5] is on record as 13.1.
In the case of `O=C(O)[C@@H](O)[C@@H](O)[C@H](O)[C@@H](O)C(=O)O` [Saccharate], the “LogK Mn2+ (stability constant)” value in data set [1] is reported as 8.5. Also, the “LogK Fe3+ (stability constant)” value in [3] was 24.5. Further, the “LogK Cu2+ (stability constant)” value in data set [5] was 14.0.
For the compound Iron Citrate, in the data set on CLas bacteria (at 30 ppm Fe, foliar), the “% of PCR Analysis Showing No CLas” value came out at 0%, the “Average Ct values based” value is 29.7 and the “Log Copy #/1 mg of Leaf Tissue” value was 2.6. Further, in the data set with CLas bacteria (at 60 ppm Fe, foliar), the “% of PCR Analysis Showing No CLas” value is reported as 0%, the “Average Ct values based” value stood at 31.2 and the “Log Copy #/1 mg of Leaf Tissue” value was 2.1. Further, the “Percentage” value in the data set on citrus greening disease (at 30 ppm Fe, foliar) is reported as 44%. In addition, the “Percentage” value with citrus greening disease (at 60 ppm Fe, foliar) stood at 50%. The “LogK Fe2+ (stability constant)” value in data set [2] was 3.2.
